Structures can show the parent of a compound that is named as a salt. Where two headings read alike, the source gives them in different places.
Assays:
Assay type in all cases: cell-based
[1] = target: T1, human norepinephrine transporter (Homo sapiens, UniProt P23975); assay: Inhibitory action on human norepinephrine transporter ([3H]-norepinephrine uptake in CHO cells); settings: CHO, relative to inhibitory activity of 10 μM DMI as 100%
T1 construct: expressed in transfected cells
Excerpt: (§1) Human serotonin transporter cDNA was amplified from human brain cDNA library by PCR, and inserted into pCRII-TOPO vector (manufactured by Invitrogen). The base sequence was confirmed and modified, and subcloned to pcDNA3.1 vector (manufactured by Invitrogen), whereby a human serotonin transporter expression plasmid was constructed. Human norepinephrine transporter cDNA was purchased from Invitrogen, and the base sequence was confirm and modified, and subcloned to pcDNA3.1 vector, whereby a human norepinephrine transporter expression plasmid was constructed.
(§2) The monoamine transporter expression plasmids thus prepared were introduced into CHO-K1 cells using FuGENE6 (manufactured by Roche Diagnostics) and according to the attached protocol, whereby each expressing cell was established.
CHO cells stably expressing human norepinephrine transporter were used for the measurement of human norepinephrine transporter inhibitory activity. Unless otherwise indicated, these CHO cells were cultured in Ham/F12 medium (Invitrogen) containing 10% fetal bovine serum (MOREGATE).
(§3) The cultured cells that reached almost confluent were rinsed with PBS (Invitrogen), detached with Trypsin/EDTA (Invitrogen), and collected by a centrifugal operation. The obtained cells were counted, and diluted to 3×10^5 cells per 1 mL medium, and the mixture was dispensed to a 96 well white plate (Corning) at 100 μL per well, and cultured overnight in a CO2 incubator.
(§4) Then, an assay buffer (126 mM NaCl, 4.95 mM KCl, 1.26 mM KH2PO4, 1.26 mM MgSO4, 10 mM HEPES, 2.32 mM CaCl2, 5.52 mM Glucose, 0.5% BSA) was prepared, the medium in the cell plate was removed and the assay buffer was added by 80 μL. A test compound was diluted with the assay buffer to a 10-fold concentration of the final concentration, and the mixture was dispensed to a 96 well polypropylene plate. The diluted test compound was dispensed to the cell plate by 10 μL. [3H]-Norepinephrine (GE Healthcare) was diluted with the assay buffer to 200 nM, and the mixture was dispensed to the cell plate by 10 μL. At 45 min from [3H]-norepinephrine addition, the assay buffer was removed by suction, and the plate was washed twice with 150 μL of PBS (Invitrogen) per well. Microscinti20 (PerkinElmer) was dispensed to each well by 100 μL, and the mixture was stirred for about 30 min. The radioactivity was measured by TopCount (PerkinElmer).
The inhibitory activity of each compound (10 μM) was calculated as a relative activity value based on the inhibitory activity of 10 μM DMI (norepinephrine transporter inhibitor) as 100%.
The inhibitory activity of each compound (1 μM) was calculated as a relative activity value based on the inhibitory activity of 10 μM DMI (norepinephrine transporter inhibitor) as 100%.

[2] = target: T2, human dopamine transporter (Homo sapiens, UniProt Q01959); assay: Inhibitory action on human dopamine transporter ([3H]-dopamine uptake in CHO cells); settings: CHO, compound 1 μM; relative to inhibitory activity of 100 μM Nomifensine as 100%; read-out: inhibitory rate (%)
T2 construct: expressed in transfected cells
T2 sequence (Q01959 whole entry): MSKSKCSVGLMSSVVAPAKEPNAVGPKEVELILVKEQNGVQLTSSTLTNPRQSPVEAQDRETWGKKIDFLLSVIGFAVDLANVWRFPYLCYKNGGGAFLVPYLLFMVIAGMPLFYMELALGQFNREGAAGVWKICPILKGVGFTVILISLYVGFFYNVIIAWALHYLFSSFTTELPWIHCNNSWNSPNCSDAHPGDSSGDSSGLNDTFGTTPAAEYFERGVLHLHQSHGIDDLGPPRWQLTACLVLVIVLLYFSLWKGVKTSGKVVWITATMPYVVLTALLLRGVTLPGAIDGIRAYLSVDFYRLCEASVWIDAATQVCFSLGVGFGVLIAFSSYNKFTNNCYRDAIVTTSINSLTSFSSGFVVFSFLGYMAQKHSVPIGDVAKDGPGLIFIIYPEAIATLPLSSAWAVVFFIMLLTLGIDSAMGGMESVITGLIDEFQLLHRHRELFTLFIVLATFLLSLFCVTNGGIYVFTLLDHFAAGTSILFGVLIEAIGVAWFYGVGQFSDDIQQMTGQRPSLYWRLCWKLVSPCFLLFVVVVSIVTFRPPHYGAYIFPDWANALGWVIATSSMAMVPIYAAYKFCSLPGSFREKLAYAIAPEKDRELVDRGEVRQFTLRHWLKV
Excerpt: SRα promoter contained in pTB1411 described in JP-A-H5-076385 was cleaved with restriction enzyme […](manufactured by TAKARA BIO INC.), blunt-ended, further cleaved with restriction enzyme EcoRI (manufactured by TAKARA BIO INC.), and fragmented. On the other hand, pCI vector was cleaved with restriction enzyme BglII (manufactured by TAKARA BIO INC.), blunt-ended with T4 DNA polymerase, and further cleaved with restriction enzyme EcoRI (manufactured by TAKARA BIO INC.). Into this site was inserted an SRa promoter fragment to give pCI-SRa. Then, pCI-SRa was cleaved with restriction enzyme ClaI (manufactured by TAKARA BIO INC.) and blunt-ended. Into this site was inserted a 1.63 Kb fragment obtained by cleaving pGFP-C1 (manufactured by TOYOBO) with restriction enzyme Bsu36I (manufactured by Daiichi Pure Chemicals Co., Ltd.) followed by blunt-ending, whereby pMSRα neo was prepared. Human dopamine transporter cDNA was amplified from human substantia nigra cDNA library by PCR, and inserted into the pCRII vector (manufactured by Invitrogen). The base sequence was confirmed, modified and subcloned to pMSRα neo, whereby a human dopamine transporter expression plasmid was constructed.
as §2
CHO cells stably expressing human dopamine transporter were used for the measurement of human dopamine transporter inhibitory activity. Unless otherwise indicated, these CHO cells were cultured in Ham/F12 medium (Invitrogen) containing 10% fetal bovine serum (MOREGATE).
as §3, with “One day before the assay, the cultured” for “The cultured”
as §4, with “On the day of the test,” for “Then,”, “[3H]-Dopamine” for “[3H]-Norepinephrine”, “nM, cold dopamine was diluted to 10 μM,” for “nM,”, “60” for “45”, “[3H]-dopamine” for “[3H]-norepinephrine”
The inhibitory activity of each compound (10 μM) was calculated as a relative activity value based on the inhibitory activity of 100 μM Nomifensine (dopamine transporter inhibitor) as 100%.
The inhibitory activity of each compound (1 μM) was m calculated as a relative activity value based on the inhibitory activity of 100 μM Nomifensine (dopamine transporter inhibitor) as 100%.

[3] = target: T3, human serotonin transporter (Homo sapiens, UniProt P31645); assay: Inhibitory action on human serotonin transporter ([3H]-5-hydroxytryptamine uptake in CHO cells); settings: CHO, compound 1 μM; relative to inhibitory activity of 10 μM Paroxetine as 100%; read-out: inhibitory rate (%)
T3 construct: expressed in transfected cells
T3 sequence (P31645 whole entry): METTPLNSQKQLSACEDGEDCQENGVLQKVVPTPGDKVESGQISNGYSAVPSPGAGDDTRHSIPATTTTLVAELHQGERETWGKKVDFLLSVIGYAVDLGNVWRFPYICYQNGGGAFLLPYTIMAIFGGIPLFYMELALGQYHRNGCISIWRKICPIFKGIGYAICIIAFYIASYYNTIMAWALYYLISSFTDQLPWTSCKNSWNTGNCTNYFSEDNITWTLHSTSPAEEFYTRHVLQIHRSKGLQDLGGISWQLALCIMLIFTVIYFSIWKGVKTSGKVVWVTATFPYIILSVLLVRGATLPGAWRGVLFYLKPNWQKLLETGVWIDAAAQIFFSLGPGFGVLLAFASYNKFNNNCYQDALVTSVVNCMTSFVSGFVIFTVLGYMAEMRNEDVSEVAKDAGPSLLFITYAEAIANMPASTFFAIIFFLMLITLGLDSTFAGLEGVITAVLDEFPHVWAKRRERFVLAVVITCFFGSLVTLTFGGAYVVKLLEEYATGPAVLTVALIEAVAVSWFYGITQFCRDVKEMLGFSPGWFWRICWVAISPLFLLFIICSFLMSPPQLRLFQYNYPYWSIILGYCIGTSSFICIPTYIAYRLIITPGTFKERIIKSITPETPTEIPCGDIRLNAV
Excerpt: as §1, §2
CHO cells stably expressing a human serotonin transporter were used for the measurement of human serotonin transporter inhibitory activity. Unless particularly indicated, these CHO cells were cultured in a Ham/F12 medium (Invitrogen) containing 10% fetal bovine serum (MOREGATE).
as §3, with “medium,” for “medium, and”
as §4, with “[3H]-5-Hydroxytryptamine” for “[3H]-Norepinephrine”, “20” for “45”, “[3H]-5-hydroxytryptamine” for “[3H]-norepinephrine”
The inhibitory activity of each compound (10 μM) was calculated as a relative activity value based on the inhibitory activity of 10 μM Paroxetine (serotonin transporter inhibitor) as 100%.
In addition, the inhibitory activity of each compound (1 μM) was calculated as a relative activity value based on the inhibitory activity of 10 μM Paroxetine (serotonin transporter inhibitor) as 100%.

[4] = compound 1 μM, read-out: inhibitory rate (%)
[5] = read-out: inhibitory rate (%), compound 1 μM

T1 sequence (P23975 whole entry): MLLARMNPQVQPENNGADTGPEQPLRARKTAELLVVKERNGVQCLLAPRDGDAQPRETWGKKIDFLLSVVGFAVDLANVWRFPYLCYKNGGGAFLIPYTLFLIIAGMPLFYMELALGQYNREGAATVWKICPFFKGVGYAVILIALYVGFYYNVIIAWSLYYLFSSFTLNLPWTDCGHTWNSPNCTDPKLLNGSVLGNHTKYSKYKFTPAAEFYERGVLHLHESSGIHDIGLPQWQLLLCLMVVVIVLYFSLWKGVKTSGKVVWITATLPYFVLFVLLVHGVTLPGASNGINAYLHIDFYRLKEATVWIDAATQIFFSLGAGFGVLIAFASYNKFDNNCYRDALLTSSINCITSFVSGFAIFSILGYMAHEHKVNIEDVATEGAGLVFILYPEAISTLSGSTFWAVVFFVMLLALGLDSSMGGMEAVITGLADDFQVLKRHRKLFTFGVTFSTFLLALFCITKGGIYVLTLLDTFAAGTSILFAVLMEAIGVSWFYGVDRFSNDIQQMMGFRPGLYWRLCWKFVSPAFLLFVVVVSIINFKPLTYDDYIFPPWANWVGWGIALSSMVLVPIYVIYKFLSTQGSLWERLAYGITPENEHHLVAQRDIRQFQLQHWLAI

Structure (SMILES)	inhibition at 1 µM [1, 4]	inhibition at 1 µM [2]	inhibition at 1 µM [3]	inhibition at 1 µM [1, 5]
CO[C@]1(CNS(C)(=O)=O)CNCCO[C@@H]1c1ccc(Cl)c(Cl)c1 (racemic) [Example 523, N-{[(6RS,7SR)-7-(3,4-dichlorophenyl)-6-methoxy-1,4-oxazepan-6-yl]methyl}methanesulfonamide monohydrochloride]	91%	2%	64%	
CS(=O)(=O)C[C@@]1(O)CNCCO[C@@H]1c1ccc(Cl)c(F)c1 (racemic) [Example 538, (6RS,7RS)-7-(4-chloro-3-fluorophenyl)-6-[(methylsulfonyl)methyl]-1,4-oxazepan-6-ol monohydrochloride]	102%	38%	91%	
O=C(O)c1cccn(C[C@@H]2CNCCO[C@H]2c2ccc(Cl)c(F)c2)c1=O (racemic) [Example 588, 1-{[(6RS, 7SR)-7-(4-chloro-3-fluoro-phenyl)-1,4-oxazepan-6-yl]methyl}-2-oxo-1,2-dihydro-pyridine-3-carboxylic acid]	104%	12%	43%	
Cc1ccc([C@H]2OCCNC[C@@H]2CNS(C)(=O)=O)cc1Cl (relative stereo) [Example 409, N-{[(6R,7S)-7-(3-chloro-4-methylphenyl)-1,4-oxazepan-6-yl]methyl}methanesulfonamide monohydrochloride]	105%	24%	56%	
CO[C@@]1(CNC(C)=O)CNCCO[C@H]1c1ccc(Cl)c(F)c1 (relative stereo) [Example 561, N-{[(6R*,7S*)-7-(4-chloro-3-fluorophenyl)-6-methoxy-1,4-oxazepan-6-yl]methyl}acetamide monohydrochloride (retention time long)]	98%	1%	46%	
CC(=O)N(C)C[C@]1(O)CNCCO[C@H]1c1ccc(Cl)c(F)c1 (relative stereo) [Example 563, N-{[(6R*,7S*)-7-(4-chloro-3-fluorophenyl)-6-hydroxy-1,4-oxazepan-6-yl]methyl}-N-methylacetamide monohydrochloride (retention time short)]	103%	2%	87%	
CS(=O)(=O)NC[C@@H]1CNCCO[C@H]1c1ccc(Cl)c(Cl)c1 [Example 34, N-{[(6S,7R)-7-(3,4-dichlorophenyl)-1,4-oxazepan-6-yl]methyl}methanesulfonamide monohydrochloride]	96%	75%	84%	
NS(=O)(=O)NC[C@@H]1CNCCO[C@H]1c1ccc(Cl)c(Cl)c1 [Example 35, N-{[(6S,7R)-7-(3,4-dichlorophenyl)-1,4-oxazepan-6-yl]methyl}sulfamide monohydrochloride]	99%	63%	86%	
O=c1ccccn1C[C@@H]1CNCCO[C@H]1c1ccc(Cl)c(F)c1 [Example 42, 1-{[(6S,7R)-7-(4-chloro-3-fluorophenyl)-1,4-oxazepan-6-yl]methyl}pyridin-2(1H)-one monohydrochloride]	102%	47%	87%	
OC[C@@H](O)[C@@H]1OCCNC[C@H]1c1ccc(Cl)c(Cl)c1 [Example 46, (1R)-1-[(6R,7R)-6-(3,4-dichlorophenyl)-1,4-oxazepan-7-yl]ethane-1,2-diol monohydrochloride]	104%	27%	70%	
OC[C@@]1(c2ccc(Cl)c(Cl)c2)CCNCCO1 [Example 47, [(7S)-7-(3,4-dichlorophenyl)-1,4-oxazepan-7-yl]methanol monohydrochloride]		9%	82%	99%
OCC1CNCCOC1c1ccc(Cl)c(Cl)c1 (stereo not drawn) [Example 48, [(6R*,7R*)-7-(3,4-dichlorophenyl)-1,4-oxazepan-6-yl]methanol monohydrochloride (retention time short)]		22%	98%	99%

Reference: patent US20130267494A1, “1,4-OXAZEPANE DERIVATIVES” (priority 2010, published 2013)
